Consider twelve compounds from patent publication US20230271965A1, “BICYCLIC HETEROARENES AND METHODS OF THEIR USE” (Kineta, Inc., priority 2020, published 2023).

The target of assay [1] is T1, PIKfyve (PIKFYVE-NanoLuc fusion in HEK293 cells) (Homo sapiens, UniProt Q9Y2I7).
T1 construct: containing a full-length PIKfyve according to manufacturer's specifications; host or cells: HEK293
The assay is described as follows: NanoBRET TE Intracellular Kinase Assay, K-8 (Promega) cell-based assay. The note with it: 2 hours, read-out: hPIKfyve BRET IC50. The procedure:
NanoBRET™ TE Intracellular Kinase Assay, K-8 (Promega) Cell-Based Assay. Intracellular inhibition of PIKfyve was assayed using Promega's NanoBRET™ TE Intracellular Kinase Assay, K-8 according to manufacturer's instructions. A dilution series of test compounds was added for 2 hours to HEK293 cells transfected for a minimum of 20 hours with PIKFYVE-NanoLuc® Fusion Vector (Promega) containing a full-length PIKfyve according to manufacturer's specifications in a 96-well plate. Kinase activity was detected by addition of a NanoBRET™ tracer reagent, which was a proprietary PIKfyve inhibitor appended to a fluorescent probe (BRET, bioluminescence resonance energy transfer). Test compounds were tested at concentrations of 10, 3, 1, 0.3, 0.1, 0.03, 0.01, 0.003 μM. BRET signals were measured by a GloMax® Discover Multimode Microplate Reader (Promega) using 0.3 sec/well integration time, 450BP donor filter and 600LP acceptor filters. Active test compounds that bound PIKfyve and displaced the tracer reduced BRET signal. IC50 values were then calculated by fitting the data to the normalized BRET ratio.
Background: In BRET a luciferase serves as donor, and the signal depends on an acceptor being close.

The target of assay [2] is T2, full-length human PIKFYVE (GST-PIKFYVE) (Homo sapiens, UniProt Q9Y2I7, L932S/Q1183K/Q995L/S1033A/S696N/T998S).
T2 construct: A full-length human PIKFYVE [1-2098 (end) amino acids; purchased Carna Biosciences; host or cells: baculovirus expression system
Put plainly: PIKfyve biochemical assay (ADP-Glo Kinase assay, Carna Biosciences). The note with it: ADP-Glo, full-length human PIKFYVE; read-out: hPIKfyve IC50. The protocol: PIKfyve Biochemical Assay. The biochemical PIKFyve inhibition assays were run by Carna Biosciences according to proprietary methodology based on the Promega ADP-Glo™ Kinase assay. […] GST-PIKFYVE was purified by using glutathione sepharose chromatography and used in an ADP-Glo™ Kinase assay (Promega). Reactions were set up by adding the test compound solution, substrate solution, ATP solution and kinase solution, each at 4×final concentrations. Reactions were prepared with assay buffer (50 mM MOPS, 1 mM DTT, pH7.2), mixed, and incubated in black 384 well polystyrene plates for 1 hour at room temperature. ADP-Glo™ reagent was then added for 40 minutes, followed by kinase detection reagent for an additional 40 minutes. The kinase activity was evaluated by detecting relative light units on a luminescence plate reader. Samples were run in duplicate from 10 μM to 3 nM. […] IC50 values were calculated from concentration vs % inhibition curves by fitting to a four-parameter logistic curve.
The biochemical PIKFyve inhibition assays were run by Carna Biosciences according to proprietary methodology based on the Promega ADP-Glo™ Kinase assay. […] GST-PIKFYVE was purified by using glutathione sepharose chromatography and used in an ADP-Glo™ Kinase assay (Promega).
Reactions were set up by adding the test compound solution, substrate solution, ATP solution and kinase solution, each at 4×final concentrations. Reactions were prepared with assay buffer (50 mM MOPS, 1 mM DTT, pH7.2), mixed, and incubated in black 384 well polystyrene plates for 1 hour at room temperature. ADP-Glo™ reagent was then added for 40 minutes, followed by kinase detection reagent for an additional 40 minutes. The kinase activity was evaluated by detecting relative light units on a luminescence plate reader. Samples were run in duplicate from 10 uM to 3 nM. […] IC50 values were calculated from concentration vs % inhibition curves by fitting to a four-parameter logistic curve.

Assay [3] deals with PIKFYVE TDP-43 yeast strain. The assay is described as follows: Propidium iodide viability assay, PIKFYVE TDP-43 yeast strain. The note with it: 0.23 μM, FIG. 6. The assay is classed as cell-based. From the text:
Generation of TDP-43 yeast model expressing human PIKfyve. Human PIKFYVE (“entry clone”) was cloned into pAG416GPDccdB (“destination vector”) according to standard Gateway cloning protocols (Invitrogen, Life Technologies). The resulting pAG416GPD-PIKFYVE plasmids were amplified in E. coli and plasmid identity confirmed by restriction digest and Sanger sequencing. Lithium acetate/polyethylene glycol-based transformation was used to introduce the above PIKFYVE plasmid into a BY4741 yeast strain auxotrophic for the ura3 gene and deleted for two transcription factors that regulate the xenobiotic efflux pumps, a major efflux pump, and FAB1, the yeast ortholog of PIKFYVE (MATa, snq2::KILeu2; pdr3::KIura3; pdr1::NATMX; fab1::G418^R, his3; leu2; ura3; met15; LYS2+) (FIG. 2).
Transformed yeast were plated on solid agar plates with complete synthetic media lacking uracil (CSM-ura) and containing 2% glucose. Individual colonies harboring the control or PIKFYVE TDP-43 plasmids were recovered. A plasmid containing wild-type TDP-43 under the transcriptional control of the GAL1 promoter and containing the hygromycin-resistance gene as a selectable marker was transformed into the fab1::G418^R pAG416GPD-PIKFYVE yeast strain (FIG. 1). Transformed yeast were plated on CSM-ura containing 2% glucose and […] after overnight recovery in media lacking antibiotic. Multiple independent isolates were further evaluated for cytotoxicity and TDP-43 expression levels.
Viability Assay. A control yeast strain with the wild-type yeast FAB1 gene and TDP-43 (“FAB1 TDP-43”, carries empty pAG416 plasmid), and the “PIKFYVE TDP-43” yeast strain, were assessed for toxicity using a propidium iodide viability assay. Both yeast strains were transferred from solid CSM-ura/2% glucose agar plates into 3 mL of liquid CSM-ura/2% glucose media for 6-8 hours at 30° C. with aeration. Yeast cultures were then diluted to an optical density at 600 nm wavelength (OD600) of 0.005 in 3 mL of CSM-ura/2% raffinose and grown overnight at 30° C. with aeration to an OD600 of 0.3-0.8. Log-phase overnight cultures were diluted to OD600 of 0.005 in CSM-ura containing either 2% raffinose or galactose and 150 μL dispensed into each well of a flat bottom 96-well plates. Compounds formulated in 100% dimethyl sulfoxide (DMSO) were serially diluted in DMSO and 1.5 μL diluted compound transferred to the 96-well plates using a multichannel pipet. Wells containing DMSO alone were also evaluated as controls for compound effects. Tested concentrations ranged from 15 μM to […]. Cultures were immediately mixed to ensure compound distribution and covered plates incubated at 30° C. for 24 hours in a stationary, humified incubator.
Upon the completion of incubation, cultures were assayed for viability using propidium iodide (PI) to stain for dead/dying cells. A working solution of PI was made where, for each plate, 1 μL of 10 mM PI was added to 10 mL of CSM-ura (raffinose or galactose). The final PI solution (50 μL/well) was dispensed into each well of a new round bottom 96-well plate. The overnight 96-well assay plate was then mixed with a multichannel pipet and 50 μL transferred to the PI-containing plate. This plate was then incubated for 30 minutes at 30° C. in the dark. A benchtop flow cytometer (Miltenyi MACSquant) was then used to assess red fluorescence ([…]), forward scatter, and side scatter (with following settings: gentle mix, high flow rate, fast measurement, 10,000 events). Intensity histograms were then gated for “PI-positive” or “PI-negative” using the raffinose and galactose cultures treated with DMSO as controls. The DMSO controls for raffinose or galactose-containing cultures were used to determine the window of increased cell death and this difference set to 100. All compounds were similarly gated and then compared to this maximal window to establish the percent reduction in PI-positive cells.

The next assay deals with FAB1 TDP-43 yeast strain. The assay is described as follows: Propidium iodide viability assay, control FAB1 TDP-43 yeast strain. It counts as cell-based. To be noted: across a range of compound concentrations (only 0.23 μM is shown), FIG. 5. The procedure: Generation of TDP-43 yeast model expressing human PIKfyve. Human PIKFYVE (“entry clone”) was cloned into pAG416GPDccdB (“destination vector”) according to standard Gateway cloning protocols (Invitrogen, Life Technologies). The resulting pAG416GPD-PIKFYVE plasmids were amplified in E. coli and plasmid identity confirmed by restriction digest and Sanger sequencing. […]
Transformed yeast were plated on solid agar plates with complete synthetic media lacking uracil (CSM-ura) and containing 2% glucose. […] Multiple independent isolates were further evaluated for cytotoxicity and TDP-43 expression levels.
Viability Assay. A control yeast strain with the wild-type yeast FAB1 gene and TDP-43 (“FAB1 TDP-43”, carries empty pAG416 plasmid), and the “PIKFYVE TDP-43” yeast strain, were assessed for toxicity using a propidium iodide viability assay. […] Wells containing DMSO alone were also evaluated as controls for compound effects. […]
Upon the completion of incubation, cultures were assayed for viability using propidium iodide (PI) to stain for dead/dying cells. […] A benchtop flow cytometer (Miltenyi MACSquant) was then used to assess red fluorescence ([…]), forward scatter, and side scatter (with following settings: gentle mix, high flow rate, fast measurement, 10,000 events). […]

The test system of assay [4] is PIKFYVE TDP-43 yeast strain. The assay is described as follows: Propidium iodide viability assay, PIKFYVE TDP-43 yeast strain. The assay is classed as cell-based. To be noted: concentrations ranging from 0.5 mM to less than 100 nM.

T2 sequence (Q9Y2I7 whole entry S696N/L932S/Q995L/T998S/S1033A/Q1183K): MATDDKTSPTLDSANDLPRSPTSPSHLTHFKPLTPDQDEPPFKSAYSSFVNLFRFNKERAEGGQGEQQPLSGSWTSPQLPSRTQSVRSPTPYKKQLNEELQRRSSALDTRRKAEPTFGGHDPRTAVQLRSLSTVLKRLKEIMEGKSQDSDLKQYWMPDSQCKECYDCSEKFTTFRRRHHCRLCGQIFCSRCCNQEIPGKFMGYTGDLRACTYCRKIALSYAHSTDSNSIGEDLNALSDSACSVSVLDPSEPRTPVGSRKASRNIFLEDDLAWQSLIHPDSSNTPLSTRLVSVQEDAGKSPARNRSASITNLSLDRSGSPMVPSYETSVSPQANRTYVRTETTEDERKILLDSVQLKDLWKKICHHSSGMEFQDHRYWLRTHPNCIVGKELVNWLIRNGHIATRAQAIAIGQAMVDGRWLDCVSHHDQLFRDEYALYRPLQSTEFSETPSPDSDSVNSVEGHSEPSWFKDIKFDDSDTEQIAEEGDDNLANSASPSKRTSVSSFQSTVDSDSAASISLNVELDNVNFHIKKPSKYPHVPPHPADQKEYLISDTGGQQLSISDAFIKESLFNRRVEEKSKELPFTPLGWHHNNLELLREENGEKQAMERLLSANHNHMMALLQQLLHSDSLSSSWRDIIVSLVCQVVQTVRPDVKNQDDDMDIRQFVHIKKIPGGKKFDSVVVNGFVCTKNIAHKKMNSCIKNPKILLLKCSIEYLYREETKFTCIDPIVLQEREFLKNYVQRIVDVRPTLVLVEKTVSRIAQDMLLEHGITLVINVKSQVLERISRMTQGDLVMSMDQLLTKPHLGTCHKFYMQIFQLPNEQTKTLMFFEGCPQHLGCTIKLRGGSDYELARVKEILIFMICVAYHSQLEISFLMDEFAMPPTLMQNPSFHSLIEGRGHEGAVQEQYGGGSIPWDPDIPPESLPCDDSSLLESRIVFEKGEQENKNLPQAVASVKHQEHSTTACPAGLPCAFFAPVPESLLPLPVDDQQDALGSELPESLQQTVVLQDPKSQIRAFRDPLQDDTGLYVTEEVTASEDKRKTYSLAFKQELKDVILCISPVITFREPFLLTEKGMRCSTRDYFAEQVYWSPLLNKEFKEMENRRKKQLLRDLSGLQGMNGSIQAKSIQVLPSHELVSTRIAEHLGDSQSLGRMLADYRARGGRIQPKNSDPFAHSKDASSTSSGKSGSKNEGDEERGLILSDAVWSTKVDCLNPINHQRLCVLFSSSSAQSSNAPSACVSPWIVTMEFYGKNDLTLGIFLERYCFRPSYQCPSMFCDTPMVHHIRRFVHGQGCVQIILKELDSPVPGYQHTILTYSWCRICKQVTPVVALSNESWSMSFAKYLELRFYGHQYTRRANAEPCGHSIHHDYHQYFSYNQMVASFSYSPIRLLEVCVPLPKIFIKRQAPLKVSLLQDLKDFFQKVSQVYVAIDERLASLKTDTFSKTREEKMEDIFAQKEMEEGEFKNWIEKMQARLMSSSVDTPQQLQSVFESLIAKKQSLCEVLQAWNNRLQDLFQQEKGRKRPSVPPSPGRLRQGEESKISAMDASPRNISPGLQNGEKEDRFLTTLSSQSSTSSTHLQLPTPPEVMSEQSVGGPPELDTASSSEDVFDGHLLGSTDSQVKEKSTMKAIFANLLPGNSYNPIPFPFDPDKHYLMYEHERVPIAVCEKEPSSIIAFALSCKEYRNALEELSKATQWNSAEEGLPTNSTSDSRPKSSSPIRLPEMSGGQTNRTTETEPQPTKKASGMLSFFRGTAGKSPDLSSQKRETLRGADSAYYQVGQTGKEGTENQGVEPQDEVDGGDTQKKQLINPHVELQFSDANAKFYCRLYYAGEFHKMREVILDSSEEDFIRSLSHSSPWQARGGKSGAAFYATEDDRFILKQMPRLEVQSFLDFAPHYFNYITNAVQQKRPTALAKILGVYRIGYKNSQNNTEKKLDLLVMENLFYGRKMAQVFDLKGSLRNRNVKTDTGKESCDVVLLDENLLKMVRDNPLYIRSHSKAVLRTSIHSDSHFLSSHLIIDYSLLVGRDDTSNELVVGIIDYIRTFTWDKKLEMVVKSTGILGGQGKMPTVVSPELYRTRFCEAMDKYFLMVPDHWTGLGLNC
T1 sequence (Q9Y2I7 whole entry, the tested form may be a part): as the sequence (Q9Y2I7 whole entry S696N/L932S/Q995L/T998S/S1033A/Q1183K) above, with N696S, S932L, L995Q, S998T, A1033S, K1183Q counted along it

A word on the IC50: it is the midpoint of a concentration-inhibition curve. `N#Cc1ccc(N2CCc3c(OCc4cccnc4)nc(N4CCOCC4)nc32)cc1` [Compound 21, 4-(2-morpholino-4-(pyridin-3-ylmethoxy)-5H-pyrrolo[2,3-d]pyrimidin-7(6H)-yl)benzonitrile]: the IC50 in assay [1] is 100 to 1000 nM.
Turning to `c1cncc(Oc2nc(N3CCOCC3)nc3c2CCN3c2cccnc2)c1` [Compound 24, 4-(7-(pyridin-3-yl)-4-(pyridin-3-yloxy)-6,7-dihydro-5H-pyrrolo[2,3-d]pyrimidin-2-yl)morpholine], the results for the IC50 in assay [1] and in assay [2] were 1000 to 10000 nM and 10 to 100 nM, respectively.
With `c1ccc(N2CCc3c(OCc4cccnc4)nc(N4CCOCC4)nc32)cc1` [Compound 3], the concentration for half-maximal inhibition (IC50) in assay [1] was in the range of 10 to 100 nM.
On the same count and under the same terms, with `OCC(O)COc1nc(N2CCOCC2)nc2c1CCN2c1ccccc1` (stereo not shown) [Compound 25, 3-((2-morpholino-7-phenyl-6,7-dihydro-5H-pyrrolo[2,3-d]pyrimidin-4-yl)oxy)propane-1,2-diol] the figure was 100 to 1000 nM.
As for `c1ccc(N2CCc3c(OCCc4ccccn4)nc(N4CCOCC4)nc32)cc1` [Compound 1, 4-(7-phenyl-4-(2-(pyridin-2-yl)ethoxy)-6,7-dihydro-5H-pyrrolo[2,3-d]pyrimidin-2-yl)morpholine], in assay [1], the concentration for half-maximal inhibition (IC50) was in the range of 10 to 100 nM.
On the same count and under the same terms, with `COc1nc(N2CCOCC2)nc2c1CCN2c1ccccc1` [Compound 16, 4-(4-methoxy-7-phenyl-6,7-dihydro-5H-pyrrolo[2,3-d]pyrimidin-2-yl)morpholine] the figure was 100 to 1000 nM.
`CN1CCC(COc2nc(N3CCOCC3)nc3c2CCN3c2cccnc2)CC1` [Compound 111]: the half-maximal inhibitory concentration (IC50) in assay [1] was in the range of 1000 to 10000 nM; in assay [2], 100 to 1000 nM.
`Cc1cccc(/C=N/Nc2cc(N3CCOCC3)n3nc(-c4ccncc4)cc3n2)c1` [APY0201]: the “population of propidium iodide-positive dead cells in PIKFYVE TDP-43” value in assay [3] is given as “reduced the population of propidium iodide-positive dead cells”. For the same compound, the “increase in viable cells in FAB1 TDP-43” value in the assay with FAB1 TDP-43 yeast strain is listed as “no increase in viable cells”. Further, the “viability in PIKFYVE TDP-43 model” value in assay [4] is reported as “increased viability”.
For `c1ccc(N2CCc3c(-c4ccncc4)nc(N4CCOCC4)nc32)cc1` [Compound 41, 4-(7-phenyl-4-(pyridin-4-yl)-6,7-dihydro-5H-pyrrolo[2,3-d]pyrimidin-2-yl)morpholine], the IC50 in assay [1] is 10 to 100 nM; in assay [2], less than 10 nM.
For `c1cncc(N2CCc3c(OCCC4CCCO4)nc(N4CCOCC4)nc32)c1` (stereo not shown) [Compound 10], the IC50 in assay [1] is 100 to 1000 nM; in assay [2], less than 10 nM.
For `c1ccc(N2CCc3c(OCc4cccnn4)nc(N4CCOCC4)nc32)cc1` [Compound 5], the IC50 in assay [1] lay in the range of 100 to 1000 nM.
On to `c1ccc(N2CCc3c(Oc4cccnc4)nc(N4CCOCC4)nc32)cc1` [Compound 22, 4-(7-phenyl-4-(pyridin-3-yloxy)-6,7-dihydro-5H-pyrrolo[2,3-d]pyrimidin-2-yl)morpholine], for which the IC50 in assay [1] is 100 to 1000 nM; in assay [2] it was less than 10 nM.
